Reference: patent EP4458916A1, “PHOTOCATALYTICALLY ACTIVE COATING COMPOSITION, METHOD FOR THE PRODUCTION THEREOF AND USE THEREOF” (priority 2023, dated 2024)
Like-named read-outs stand apart in the source and are kept apart here.

Experiments:
[1] = Immersion test: binding / wash-out of photocatalysts from SolGel coatings (1 h deionised water, UV-VIS signal loss); type: physicochemical; conditions: Rezeptur 5 coating on glass, dye 10 bis 40 mM; 1 h deionised water pH 6 ± 1, 22 ± 3 °C; relative UV-VIS signal loss at absorption maximum
Protocol: Für alle Untersuchungen wurden nach Beispiel 8 beschichtete Glasträger verwendet.
Um das Auswaschen der verschiedenen Farbstoffe in den Sol-Gel-Beschichtungen zu beurteilen wurde ein Immersionstest in vollentsalztem Wasser mit einem pH-Wert von (6 ± 1) und einer Wassertemperatur von (22 ± 3) °C für eine Stunde durchgeführt. Dazu wurden zunächst Schichten (Rezeptur 5, Beispiel 4, aufgefüllt mit 3,0 mL 2-Propanol; sh. Tabelle 3) mit erhöhter Farbstoffkonzentration (10 bis 40 mM; um die notwendige Auflösung bei der dünnen Schicht zu erreichen) auf Glas-Objektträgern erzeugt. Diese wurden nach dem Ablüften bei Raumtemperatur (30 min) eine Stunde bei 60°C nachgehärtet. Anschließend wurden die Schichten direkt im UV-VIS-Spektrometer vermessen. Die Ausgangswerte (Absorptionsmaximum des jeweiligen Farbstoffs) sollten dabei zwischen 0,05 A.U. und 1,50 A.U. liegen.
Nach einer Stunde in VE-Wasser wurden die Prüfkörper getrocknet und erneut gemessen. Aus den beiden Messungen wurde ein relativer Signalverlust in Prozent bei dem farbstoffspezifischen Absorptionsmaximum bestimmt.
Dieser Immersionstest diente dazu, das Auswaschverhalten verschiedener Farbstoffe aus Beschichtungssystemen zu beurteilen. Weiter soll er dabei helfen, verschiedene Farbstoffklassen oder verschiedene Farbstoffderivate einer Farbstoffklasse bezüglich dieser Charakteristik miteinander zu vergleichen. Die Ergebnisse sind in den folgenden Tabellen sortiert nach Stoffgruppen zusammengefasst: […]

S.aureus = type: cell-based; conditions: for Log10 Reduktion Probe / Log10 Reduktion Dunkelkontrolle: label = Katalysator of the coating, Rezeptur 2 nach Beispiel 2c on Melamin with S-25a 2 mM
Bakterien = experiment: Room light tests (Raumlichtversuche): antimicrobial efficacy at 10 µW/cm^2 for 24 h; type: cell-based; conditions: Farbstoff 5 mM, coating Rezeptur 3, Beispiel 2a (2,5 eq aqueous boric acid, 50 mM)
Protocol: Um die antimikrobielle Wirksamkeit in einem realen Szenario abzuschätzen, wurden sogenannte Raumlichtversuche durchgeführt. Dazu wurden die mit Bakterien versetzten Probenträger mit einer, für Innenräume repräsentativen Lichtintensität von 10 µW/cm^2 für einen Zeitraum von 24 h bestrahlt.
Herstellung der Beschichtung erfolgte gemäß Beispiel 2a (2,5 eq wässrige Borsäure, 50 mM), mit Rezeptur 3. Die Ergebnisse sind in der Tabelle 63 zusammengefasst. Tabelle 63: Antimikrobielle Wirksamkeit bei Raumlichtbedingungen

S. enterica = experiment: Bacteria test following modified ISO 22196, photodynamic effect of different photocatalysts in the SolGel coating on S. enterica; type: cell-based; conditions: Rezeptur 4 nach Beispiel 5 on Melamin, 4 h
Description: (§1) Die Bestimmung der antimikrobiellen Aktivität erfolgte nach einer modifizierten Version der ISO 22196:2011-08 ("Messung von antibakterieller Aktivität auf Kunststoff- und anderen porenfreien Oberflächen", Ausgabedatum: 2011-08).
(§2) Bei der Testdurchführung wurde ein dünner Flüssigkeitsfilm, in dem die Bakterien enthalten sind (1,25 x 10^4 /cm2), direkt auf die Probekörper (2,5 cm x 2,5 cm) aufgebracht. Direkt nach Beimpfung wurden von der Nullprobe die Bakterien von den Probekörperoberflächen mittels Ultraschall und Vortexen abgelöst und die Keimzahl (KBE (engl. CFU), Kolonie-bildende Einheit) bestimmt (t0-Wert). Ein weiterer Satz Nullproben und antimikrobiell ausgestatteter Proben wurden mit Bakterien im Flüssigkeitsfilm bei Raumtemperatur inkubiert. Nach 4 h wurden überlebende Bakterien von den Probekörperoberflächen mittels Ultraschall und Vortexen abgelöst und die Keimzahl bestimmt (t4-Wert).
(§3) Im Unterschied zu der in der ISO 22196:2011-08 beschriebenen Methode wurde das Inokulum nicht mit einer Folie abgedeckt und die Inkubationszeit von 24 auf 4 Stunden reduziert. Weiterhin wurden die Platten der Proben 3 und 4 mit Licht mit einer Intensität von 300 µW/cm2 belichtet.
(§4) Der Bakterientest wurde in Anlehnung an ISO 22196 nach oben beschriebener Methode durchgeführt. Die Ergebnisse sind Tabelle 57a bis 57b dargestellt. Tabelle 57a: Photodynamische Wirkung verschiedener Katalysatoren in der SolGel Beschichtung gegen S.aureus

I. monocytoqenes = experiment: Bacteria test following modified ISO 22196, photodynamic effect of different photocatalysts in the SolGel coating on I. monocytoqenes; type: cell-based; conditions: Rezeptur 4 nach Beispiel 5 on Melamin, 4 h
Description: as §1, §2, §3, §4

| Compound | Verlust durch Auswaschen [1] [%] | other results |
| --- | --- | --- |
| 2,7,12-Tris(pyridinio-p-tolyl)-17-(p-(methoxymethyl)phenyl) porphycen bromid [reference compound] | > 70 |  |
| CC(O)C(=O)[O][Al]([O]C(=O)C(C)O)[O]C(=O)C(C)O (centres unmarked) [AL] |  | Log10 Reduktion Probe (S.aureus; 4 h, 300 µW/cm2): 3,3±0,4; Log10 Reduktion Dunkelkontrolle (S.aureus; 4 h, dark): 0,2±0,7 |
| O=P(N1CCCC1)(N1CCCC1)N1CCCC1 [PO] |  | Log10 Reduktion Probe (S.aureus; 4 h, 300 µW/cm2): 3,6±0,3; Log10 Reduktion Dunkelkontrolle (S.aureus; 4 h, dark): 0,0±0,1 |
| NCCCOC1=CC(=O)c2cccc3cccc1c23 [S-08] | 13 |  |
| O=C1C(COc2ccc(O)cc2)=Cc2cccc3cccc1c23 [S-12] | 3 |  |
| O=C1C(COc2ccc(CO)cc2)=Cc2cccc3cccc1c23 [S-13] |  | log reduction at 5000 µM (Bakterien; 24 h, dark control, read-out: Log10 Reduktion Dunkelkontrolle): 0.9; log reduction at 5000 µM (Bakterien; illuminated 10 µW/cm^2 for 24 h, read-out: Log10 Reduktion 24 h): 1.9 |
| O=C1C(C[n+]2ccccc2)=Cc2cccc3cccc1c23 [S-24a] | 9 | Photodynamische Wirkung gegen S.aureus (Log10 Reduktion), compared with the values of S-25a (S.aureus; Rezeptur 2, Beispiel 2a, filled up with IPA 1:2/1:5/1:8, dye content varied (Tabelle 56)): im Rahmen des Fehlers die gleichen Werte; S. enterica Log10 Reduktion Probe (S. enterica; 300 µW/cm2): 4,5±0,8; S. enterica Log10 Reduktion Dunkelkontrolle (S. enterica; dark): 0,0±0,2; I. monocytoqenes Log10 Reduktion Probe (I. monocytoqenes; 300 µW/cm2): 4,5±0,3; I. monocytoqenes Log10 Reduktion Dunkelkontrolle (I. monocytoqenes; dark): 0,0±0,3 |
| CCCCCCCCCCOc1ccc(/C=C/C(=O)CC(=O)/C=C/c2ccc(OCCCCCCCCCC)cc2)cc1 [S-52a] | 13 |  |
| COCCC1=Cc2nc1ccc1[nH]c(cc1CCOC)c1nc(c(O)cc3[nH]c2cc3CCOC)C(CCOC)=C1 [S-58a, 9-Hydroxy-2,7,12,17-tetra-(beta-methoxyethyl)porphycen] | 4 | S. aureus Log10 Reduktion Probe (S.aureus; Rezeptur 4 nach Beispiel 5 on Melamin, 4 h, 300 µW/cm2): 1,4±0,1; S. aureus Log10 Reduktion Dunkelkontrolle (S.aureus; Rezeptur 4 nach Beispiel 5 on Melamin, 4 h, dark): 0,0±0,1 |
| CC(=O)OCCC1=Cc2nc1ccc1[nH]c(cc1CCOC(C)=O)c1nc(c(O)cc3[nH]c2cc3CCOC(C)=O)C(CCOC(C)=O)=C1 [S-60a] | 8 |  |
| CC(=O)OCCC1=Cc2nc1ccc1[nH]c(cc1CCOC(C)=O)c1nc3c(cc4[nH]c2cc4CCOC(C)=O)OCCC3=C1 [S-60b] | 2 |  |
| COCCC1=Cc2nc1ccc1[nH]c(cc1CCOC)c1nc(c(OCCCO)cc3[nH]c2cc3CCOC)C(CCOC)=C1 [S-61a] | 6 |  |
| COCCC1=Cc2nc1ccc1[nH]c(cc1CCOC)c1nc(c(OCCCN)cc3[nH]c2cc3CCOC)C(CCOC)=C1 [S-62] | 3 |  |
| COCCC1=Cc2nc1ccc1[nH]c(cc1CCOC)c1nc(c(OCCCC(=O)O)cc3[nH]c2cc3CCOC)C(CCOC)=C1 [S-66a] | 3 |  |
| COCCC1=Cc2nc1ccc1[nH]c(cc1CCOC)c1nc(c(OCCC[Si](OC)(OC)OC)cc3[nH]c2cc3CCOC)C(CCOC)=C1 [S-68] | 9 |  |
| COCCC1=Cc2nc1c(O)cc1[nH]c(cc1CCOC)c1nc(c(NC(C)=O)cc3[nH]c2cc3CCOC)C(CCOC)=C1 [S-70] | 4 |  |
| COCCC1=Cc2nc1ccc1[nH]c(cc1CCOC)c1nc(c(OC(=O)CCC(N)C(=O)O)cc3[nH]c2cc3CCOC)C(CCOC)=C1 (centres unmarked) [S-74] | 11 |  |
| COCCC1=Cc2nc1ccc1[nH]c(cc1CCOC)c1nc(c(OCCCNC(=O)CCC(N)C(=O)O)cc3[nH]c2cc3CCOC)C(CCOC)=C1 (centres unmarked) [S-75] | 9 |  |
| OCCC1=Cc2nc1ccc1[nH]c(cc1CCO)c1nc(c(O)cc3[nH]c2cc3CCO)C(CCO)=C1 [Verbindungen S-59a] | 8 |  |
